Reference: US20150132746A1, “SAMPLING MEDIUM” (UNIVERSITY OF OSLO, priority 2012, published 2015)
Where a name gives a salt, the structure may show the parent alone. Read-outs that look alike come from different tables or passages of the source.

Tests used:
[1] = Long term stability of model analytes in dried oral fluid stored 30 days on alginate or chitosan foam; type: physicochemical, human; conditions: n = 3
Excerpt: The results are shown in Tables 3 and 4 for alginate and chitosan foam, respectively. No sample loss is observed after 30 days of storage. The stability of the model analytes by storing oral fluid on alginate and chitosan foam was considered satisfactory.

[2] = cited from earlier work
[3] = whole blood 70 ng/ml on alginate foam
[4] = oral fluid on alginate foam, theoretical 100 ng/ml, stored at 4 C
[5] = oral fluid on alginate foam, theoretical 100 ng/ml, stored at 37 C
[6] = oral fluid on alginate foam, theoretical 100 ng/ml, stored at room temperature
[7] = oral fluid on alginate foam, theoretical 100 ng/ml, stored at −18 C
[8] = oral fluid on alginate foam, theoretical 500 ng/ml, stored at 4 C
[9] = oral fluid on alginate foam, theoretical 500 ng/ml, stored at 37 C
[10] = oral fluid on alginate foam, theoretical 500 ng/ml, stored at room temperature
[11] = oral fluid on alginate foam, theoretical 500 ng/ml, stored at −18 C
[12] = oral fluid on chitosan foam, theoretical 100 ng/ml, stored at 4 C
[13] = oral fluid on chitosan foam, theoretical 100 ng/ml, stored at 37 C
[14] = oral fluid on chitosan foam, theoretical 100 ng/ml, stored at room temperature
[15] = oral fluid on chitosan foam, theoretical 100 ng/ml, stored at −18 C
[16] = oral fluid on chitosan foam, theoretical 500 ng/ml, stored at 4 C
[17] = oral fluid on chitosan foam, theoretical 500 ng/ml, stored at 37 C
[18] = oral fluid on chitosan foam, theoretical 500 ng/ml, stored at room temperature
[19] = oral fluid on chitosan foam, theoretical 500 ng/ml, stored at −18 C

Compound | Measured concentration at day 30 [1, 4] [ng/mL] | Measured concentration at day 30 [1, 5] [ng/mL] | Measured concentration at day 30 [1, 6] [ng/mL] | Measured concentration at day 30 [1, 7] [ng/mL] | Measured concentration at day 30 [1, 8] [ng/mL] | Measured concentration at day 30 [1, 9] [ng/mL] | Measured concentration at day 30 [1, 10] [ng/mL] | Measured concentration at day 30 [1, 11] [ng/mL] | Measured concentration at day 30 [1, 12] [ng/mL] | Measured concentration at day 30 [1, 13] [ng/mL] | Measured concentration at day 30 [1, 14] [ng/mL] | Measured concentration at day 30 [1, 15] [ng/mL] | Measured concentration at day 30 [1, 16] [ng/mL] | Measured concentration at day 30 [1, 17] [ng/mL] | Measured concentration at day 30 [1, 18] [ng/mL] | Measured concentration at day 30 [1, 19] [ng/mL] | Nominal concentration at day 50 ([3]; stored at 4° C.) [ng/mL] | Nominal concentration at day 50 ([3]; stored at 37° C.) [ng/mL] | Nominal concentration at day 50 ([3]; stored at room temperature) [ng/mL] | Nominal concentration at day 50 ([3]; stored at −18° C.) [ng/mL] | further results
CO[C@@]12CC[C@@]3(C[C@@H]1[C@](C)(O)C(C)(C)C)[C@H]1Cc4ccc(O)c5c4[C@@]3(CCN1CC1CC1)[C@H]2O5.Cl [Buprenorphine, buprenorphine hydrochloride] | 101 | 115 | 97 | 96 | 790 | 656 | 642 | 656 | 105 | 100 | 101 | 101 | 569 | 595 | 595 | 611 |  |  |  |  | 
CNC(C)Cc1ccc(OC)cc1 (stereo not drawn) [PMMA, para-methoxymethamphetamine] | 114 | 76 | 197 | 114 | 715 | 475 | 628 | 726 | 123 | 112 | 104 | 119 | 765 | 623 | 647 | 769 |  |  |  |  | 
O=C[C@H](O)[C@H](O)[C@@H](O)[C@H](O)C(=O)O [guluronic, guluronic acid] |  |  |  |  |  |  |  |  |  |  |  |  |  |  |  |  |  |  |  |  | pKa [2]: 3.65
CN[C@H]1CC[C@@H](c2ccc(Cl)c(Cl)c2)c2ccccc21 [Sertraline, sertraline hydrochloride] |  |  |  |  |  |  |  |  |  |  |  |  |  |  |  |  | 69 | 61 | 77 | 64 | 
CCC(=O)C(CC(C)N(C)C)(c1ccccc1)c1ccccc1 (stereo not drawn) [Methadone, Methadone hydrochloride] | 113 | 117 | 103 | 106 | 636 |  | 582 | 602 | 115 | 108 | 113 | 105 | 564 | 545 | 582 | 599 | 63 | 54 | 61 | 79 | 
COc1ccc(CC(C)N)cc1 (stereo not drawn) [PMA, para-methoxyamphetamine] | 115 | 53 | 80 | 105 | 722 | 406 | 628 | 717 | 127 | 131 | 104 | 122 | 765 | 648 | 719 | 769 |  |  |  |  | 
CN[C@@H](C)Cc1ccccc1 [Methamphetamine] | 107 | 42 | 72 | 103 | 645 | 319 | 466 | 687 | 126 | 80 | 98 | 117 | 744 | 467 | 601 | 732 |  |  |  |  | 
CN(C)CCCC1(c2ccc(F)cc2)OCc2cc(C#N)ccc21 (stereo not drawn) [Citalopram, citalopram hydrobromide] |  |  |  |  |  |  |  |  |  |  |  |  |  |  |  |  | 64 | 59 | 64 | 72 | 
N[C@H]1C(O)O[C@H](CO)[C@@H](O)[C@@H]1O (stereo partly drawn) [glucosamine] |  |  |  |  |  |  |  |  |  |  |  |  |  |  |  |  |  |  |  |  | pKa [2]: 6.3
